Results from patent publication US20110021355A1, “FORMULATION WITH REDUCED HYGROSCOPICITY” (BAYER TECHNOLOGY SERVICES GMBH, priority 2008, published 2011).

Test: Final pH of the formulation after dissolution in 0.01-molar hydrochloric acid / release
Type: physicochemical
Conditions: 0.1 g solid in 100 g of 0.01-molar hydrochloric acid, 400 rpm (FIG. 2)
Method: For verification of the final pH after dissolution, 100 g of 0.01-molar hydrochloric acid was put in a beaker and stirred with an inclined-vane stirrer at 400 rpm. Then 0.1 g of the solid to be verified (formulation from example 1, and magnesium hydroxide) was added and the increase in pH was recorded (pH-meter: Knick®Calimatic 766).

## [Mg+2].[OH-].[OH-] [pure magnesium hydroxide, magnesium hydroxide]
  time after which the final pH is established: about 1800 s
